{
  "source": "patent US20200010910A1",
  "about": "“Cytotoxic Chemotherapy-Based Predictive Assays for Acute Myeloid Leukemia” (The Regents of The University of California, priority 2017, published 2020)",
  "key": {"PDX Model BL0293": {"system": "PDX Model BL0293", "test": "drug-DNA adducts in PDX tumor by AMS", "type": "in vivo, NSG mice", "details": "microdose 0.375 mg/kg carboplatin, 24 h", "excerpt": "(§1) Female NSG mice (5-8 weeks of age, body weight: 20 to 25 g) were obtained from Jackson Laboratories (CA, USA). All animals were kept under pathogen-free conditions and were allowed to acclimatize for at least 4 days prior to any experiments. PDX models bearing the indicated patient derived xenografts were created by subcutaneous injection at the flank of 1 mm^3 tumor tissue. To establish multiple PDXs to allow efficacy studies with multiple drugs, PDXs from passage 2-4 were minced into 1 mm^3 sections and injected subcutaneously into multiple mice. At least 3 mice were used for each treatment group. Tumors were allowed to grow to at about 100 mm^3 before being assessed for drug sensitivity or the induction of DNA adducts by the administration of a microdose or a therapeutic dose of labeled drug. To assess tumor response to chemotherapy, cisplatin was administered at 2 mg/kg IV every 7 days for a total of 3 cycles, or gemcitabine was administered at 150 mg/kg IP every 7 days for a total of 4 cycles. G/C combination chemotherapy consisted of the simultaneous administration of both drugs using the schema described above. Tumor growth was assessed by measuring palpable tumors with a caliper and calculating tumor volume. Drug-DNA adduct frequencies were measured in tumor tissue collected 24 hours after intravenous injection of labeled drug and stored at −80° C. until DNA isolation. DNA was isolated using a modified Wizard procedure (Promega), quantitated by spectrophotometry, and then stored frozen at −20° C. until AMS analysis. Ten micrograms of DNA per sample was converted to graphite and measured by AMS for 14C quantification as previously described.\n(§2) NSG mice bearing the indicated PDX tumors were injected with a microdose of ^14C-labeled carboplatin (FIG. 22A) or ^14C-labeled gemcitabine (FIG. 22B). The microdose of ^14C-labeled carboplatin was 0.375 mg/kg carboplatin, 50,000 dpm/g. The microdose of ^14C-labeled gemcitabine was 0.092 mg/kg gemcitabine, 1000 dpm/g. The doses of each drug administered to the mice were chosen to target 1 μM in plasma concentration of carboplatin and 0.3 μM in plasma concentration of gemcitabine. These plasma concentrations represent 1% of the approximate peak plasma concentration during human chemotherapy. Animals were sacrificed after 24 h and drug-DNA adduct frequency was determined from collected tumor tissue by AMS measurements of ^14C in tumor DNA. Carboplatin DNA-adduct levels correlate with PDX model sensitivity to cisplatin at 24 h after microdosing (FIG. 22A). Gemcitabine DNA-adduct levels correlate with PDX model sensitivity to gemcitabine at 24 h after microdosing (FIG. 22B). […] There is no significant difference in carboplatin-DNA monoadduct levels between the three resistant PDX models. […]"}, "PDX Model BL0440": {"system": "PDX Model BL0440", "test": "drug-DNA adducts in PDX tumor by AMS", "type": "in vivo, NSG mice", "details": "microdose 0.375 mg/kg carboplatin, 24 h", "excerpt": "as §1, §2"}, "[1]": {"test": "carboplatin plasma pharmacokinetics in mice", "type": "in vivo, Balb/c mice", "method": "Balb/c mice received a bolus [^14C]carboplatin tail vein injection at microdose (0.373 mg/kg; 50,000 dpm/gm) or therapeutic dose (37.3 mg/kg; 50,000 dpm/gm). Mice were sacrificed in triplicate at 15 min, 1 h, 2 h, 8 h and 24 h. Concentrations of carboplatin in plasma were measured by liquid scintillation counting at each time point."}, "[2]": {"details": "patients; cited from earlier work"}, "PBMC": {"system": "PBMC", "test": "microdose-induced carboplatin-DNA monoadducts in patients", "type": "in vivo, human", "details": "for 4 h adducts PBMC / 24 h adducts PBMC: microdose; for lowest DNA monoadduct level observed: first nineteen patients, microdose 1% of therapeutic dose", "method": "Based upon the previous mouse studies that identified a minimal microdose for accurate AMS analysis of carboplatin monoadducts (1% of therapeutic carboplatin containing 50,000 DPM/gm of mouse body weight), the first in-human evaluation of microdose [^14C]carboplatin was conducted at this same equivalent formulation. The mouse radioactive dose (50,000 DPM/gm), adjusted for body surface area differences between mouse and humans, is equivalent to a dose of 1.0×10^7 DPM/kg of human body weight. The carboplatin dose for human chemotherapy is personalized to a patient's size and kidney function and is calculated using the Calvert formula with an AUC of 6 (Calvert, A. H., et al. “Carboplatin dosage: prospective evaluation of a simple formula based on renal function.” Journal of Clinical Oncology 7.11 (1989): 1748-1756). […] After blood collection, the BD Vacutainer CPT™ tubes were gently inverted several times to ensure mixing with heparin anticoagulant. The tubes were immediately placed on ice or stored at 4° C. and_then processed within 2 hours of collection to separate plasma and PBMC. For processing, the blood filled BD Vacutainer CPT™ tubes were centrifuged at room temperature in a horizontal rotor for 25 minutes at 1600×g. The top plasma layer was transferred to separate tubes and stored at or below −70° C. After most of the plasma was removed from the CPT tube, PBMC were transferred to another tube and washed three times with ice-cold phosphate-buffered solution (PBS). After pelleting the cells and removing the supernatant, the PBMC's were stored frozen at −80° C. until being processed to isolate DNA for determination of the carboplatin-DNA monoadduct frequency. Tumor samples were collected by biopsy or resection approximately 24 hours after administration of the [^14C]carboplatin microdose. These tumor specimens were placed in ice immediately after being obtained, washed three times with ice-cold PBS, and stored at or below −20° C. within 2 hours of collection. These frozen tumor samples were then processed at a later time to isolate DNA for determination of the carboplatin-DNA monoadduct frequency. To isolate DNA, tumor tissue was placed on ice in a sterile petri dish and minced with a sterile scalpel for approximately 30-90 sec per sample. Approximately 20-100 mg of tissue was then processed using the modified Wizard DNA isolation protocol as described previously.\nTwo lung and three bladder cancer patients were monitored post carboplatin therapeutic treatment to determine therapeutic outcome. Each patient was given a microdose of [^14C]carboplatin by IV injection. The microdose was 1% of therapeutic based upon Calvert calculation and formulated with [^14C]carboplatin at 1.0×10^7 DPM/kg of body weight. At time points of 2, 4, 8 and 24 hours, blood samples were taken from which PBMCs were isolated determination of carboplatin-DNA monoadduct frequency, and expressed as carboplatin-DNA monoadducts per 10^8 nucleotides (FIG. 13).\nAs we have shown in cell culture and mouse tumor xenograph experiments, the carboplatin-DNA monoadduct frequency is proportional to the dose and time integrated exposure to carboplatin. In this example we establish the useful range of carboplatin-DNA monoadduct frequencies in cancer patients receiving 1% of their therapeutic dose of carboplatin at a fixed time after microdose exposure. […] DNA from PBMC and tumor tissue was extracted and analyzed by AMS for carboplatin-DNA monoadduct frequency. […] Tumor carboplatin-DNA monoadduct frequencies ranged from 0.3 and 42.5 adducts per 10^8 nucleotides."}, "[3]": {"details": "Bladder cancer, individual patients"}},
  "note": "Several values for one entry are separate records, joined by “and”; a condition that tells them apart may be missing. Equal entries are not always repeated.",
  "data": [
    {"smiles": "N.N.O=C([O-])C1(C(=O)[O-])CCC1.[Pt+2]", "note": "[carboplatin]", "values": [
      {"measurement": "mean carboplatin-DNA monoadduct level", "setting": "PDX Model BL0293", "result": "1.46±0.520 adducts per 10^8 nucleotides"},
      {"measurement": "mean carboplatin-DNA monoadduct level", "setting": "PDX Model BL0440", "result": "2.73±0.661 adducts per 10^8 nucleotides"},
      {"measurement": "Cmax", "setting": "[1]; microdose 0.373 mg/kg", "result": 1, "unit": "µM"},
      {"measurement": "initial T1/2", "setting": "[1]; microdose 0.373 mg/kg bolus tail vein", "result": 50, "unit": "min"},
      {"measurement": "Cmax", "setting": "[1]; therapeutic dose 37.3 mg/kg", "result": "127 ± 30", "unit": "µM"},
      {"measurement": "initial T1/2", "setting": "[1]; therapeutic dose 37.3 mg/kg bolus tail vein", "result": 50, "unit": "min"},
      {"measurement": "in vivo carboplatin half-life in patients", "setting": "[2]", "result": "78 to 360", "unit": "min"},
      {"measurement": "4 h adducts PBMC", "setting": "PBMC; [3]", "result": "1.113 per 10^8 nt and 0.265 per 10^8 nt and 0.545 per 10^8 nt and 0.184 per 10^8 nt and 0.193 per 10^8 nt and 1.004 per 10^8 nt and 0.600 per 10^8 nt and 1.399 per 10^8 nt and 0.599 per 10^8 nt and 0.239 per 10^8 nt and 0.421 per 10^8 nt"},
      {"measurement": "24 h adducts PBMC", "setting": "PBMC; [3]", "result": "0.443 per 10^8 nt and 0.081 per 10^8 nt and 0.930 per 10^8 nt and 0.154 per 10^8 nt and 0.283 per 10^8 nt and 0.968 per 10^8 nt and 0.499 per 10^8 nt and 0.485 per 10^8 nt and 0.329 per 10^8 nt and 0.978 per 10^8 nt"},
      {"measurement": "4 h adducts PBMC", "setting": "PBMC; Hodgkin patient", "result": 0.861, "unit": "per 10^8 nt"},
      {"measurement": "24 h adducts PBMC", "setting": "PBMC; Hodgkin patient", "result": 0.472, "unit": "per 10^8 nt"},
      {"measurement": "4 h adducts PBMC", "setting": "PBMC; NSCLC, individual patients", "result": "0.447 per 10^8 nt and 0.662 per 10^8 nt and 0.386 per 10^8 nt and 0.587 per 10^8 nt and 0.234 per 10^8 nt and 2.214 per 10^8 nt"},
      {"measurement": "24 h adducts PBMC", "setting": "PBMC; NSCLC, individual patients", "result": "0.837 per 10^8 nt and 1.3 per 10^8 nt and 0.454 per 10^8 nt and 0.942 per 10^8 nt and 0.342 per 10^8 nt and 0.232 per 10^8 nt"},
      {"measurement": "lowest DNA monoadduct level observed", "setting": "PBMC", "result": "~3.2", "unit": "monoadducts per cell"},
      {"measurement": "lowest DNA monoadduct level observed", "setting": "PBMC; 1.0×10^7 DPM/kg", "result": "0.05 adducts per 10^8 nucleotides"}
    ]}
  ]
}
